Legend:
[1] = read-out: Kd for HA; cited from earlier work
[2] = Relaxivity in PBS / Tris buffer / water (Bruker mq60 Minispec); type: physicochemical; details: 1.41 T, 37° C.
Experimental: (§1) NMR spectra were recorded on a 500 MHz Varian spectrometer at 25° C. unless otherwise noted. Chemical shifts are reported in δ (ppm). For ^1H and ^13C NMR spectra, the residual solvent peaks were used as internal reference except for ^13C NMR recorded in D2O where dioxane was used as the internal references (Fulmer, Organometallics 2010, 29, 2176.).^1 Relaxivity measurements were performed on a Bruker mq60 Minispec, 1.41 T and 37° C. Longitudinal (T1) relaxation was acquired via an inversion recovery experiment using 10 inversion times of duration ranging between 0.05×T1 and 5×T1; tranverse […] relaxation was measured using a […] spin-echo experiment. Relaxivity (r1,2) was determined from the slope of a plot of 1/T1,2 vs. [Mn] for at least 4 concentrations. The transverse (T2) relaxation times of ^17O were acquired at 11.7 T from the full-width at half-height of the H2^17O signal (Gale, Carvan, J. Am. Chem. Soc. 2013, 135, 18600). ^17O T2 relaxivity (r2^O) was calculated by dividing the Mn-imparted increase in 1/T2 relative to neat H2O (pH 3) by the Mn concentration in mM. 0.7-1.0 mL NMR samples were enriched with a 10 μL of 18% H2^17O.

[3] = test system: plasma proteins such as serum albumin; assay: Relaxivity in human blood plasma; type: physicochemical; details: 1.41 T, 37° C.
Experimental: as §1
Incorporation of lipophilic functionality into the chelate-metal complexes promotes binding to plasma proteins such as serum albumin. This binding provides a change in relaxivity measured in human blood plasma compared to that measured in PBS. In most cases, a large (40-170%) increase in relaxivity (r1 or r2) is observed (Table 1).

| Substance | Kd [1] [nM] | r1 in PBS [2] [mM⁻¹ s⁻¹] | r1 in human blood plasma [3] [mM⁻¹ s⁻¹] |
| --- | --- | --- | --- |
| GAHWQFNALTVR | ~1000 |  |  |
| Na[Mn(PyC3A-3-ethyl ester)] [Compound 10] |  | 2.7 | 5.8 |
| Na[Mn(PyC3A-4-methoxy-3.5-dimethyl) [Compound 13] |  | 2.5 | 3.5 |
| Na[Mn(PyC3A-5-hydrazide)] [Compound 25] |  | 3.4 | 5.2 |
| Na[Mn(PyC3A-5-hydroxymethyl)] [Compound 7] |  | 2.1 | 5.7 |
| Na[Mn(PyC3A-5-methyl ester)] [Compound 4] |  | 3.1 | 2.1 |
